# Reference: patent US8975400B2, “2,3-dihydroimidazo[1, 2-c] pyrimidin-5(1 H)-one compounds use as LP-PLA2 inhibitors” (Glaxo Group Limited, priority 2011, dated 2015)
# Where a name gives a salt, the structure may show the parent alone.
# Tests used:
# [1] = molecular target: T1, Lp-PLA2 in human plasma (Homo sapiens, UniProt Q13093); assay: Lp-PLA2 human plasma assay (Thio-PAF assay); format: biochemical; settings: pooled human plasma, 2-thio-PAF substrate; read-out: pIC50 in the thio-PAF assay (converted)
# T1 construct: This assay may detect the activity of Lp-PLA2 in human plasma; from tissue; host or cells: pooled human plasma
# T1 sequence (Q13093 22-441): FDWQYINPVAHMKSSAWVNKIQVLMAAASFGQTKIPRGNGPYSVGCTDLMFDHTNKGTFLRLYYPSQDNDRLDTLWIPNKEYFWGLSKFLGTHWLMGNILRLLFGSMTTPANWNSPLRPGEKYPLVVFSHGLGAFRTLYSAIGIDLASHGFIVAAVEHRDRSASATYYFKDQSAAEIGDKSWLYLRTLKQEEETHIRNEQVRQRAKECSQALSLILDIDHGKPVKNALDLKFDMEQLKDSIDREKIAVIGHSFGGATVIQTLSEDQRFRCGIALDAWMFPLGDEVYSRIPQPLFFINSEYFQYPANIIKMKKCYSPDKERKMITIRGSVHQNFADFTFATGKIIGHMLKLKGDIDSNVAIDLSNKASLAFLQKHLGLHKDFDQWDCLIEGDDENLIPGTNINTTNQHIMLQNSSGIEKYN
# From the text: (3) Lipoprotein-Associated Phospholipase A2 (Lp-PLA2) Human Plasma Assay (Also Referred to as “Thio-PAF Assay”)
# The human plasma assay utilizes a thioester analog of PAF (phosphatidylcholine), where hydrolysis yields to the formation of a phospholipid containing a free thiol group. The amount of thiol is quantitated continuously by reacting with CPM (7-diethylamino-3-(4′-maleimidylphenyl)-4-methylcoumarin), a maleimide which increases in fluoresence after Michael addition of thiols. This assay may detect the activity of Lp-PLA2 in human plasma, as determined by specific inhibition by Lp-PLA2 inhibitors.
# The thio-PAF assay was run as a quenched 15 μL assay. Compounds source plate was prepared by making 1:3 (by volume) serial dilution of the compounds into pure DMSO on 384-well microplate. 0.01 μL of compounds on compound source plate were transferred to 384 well Greiner 784076 (black) low-volume plates by ECHO liquid dispenser. 8 μL pooled human plasma, which was previously aliquoted and frozen, was added. Plates were centrifuged for 10 sec at 500 rpm. After 30 minutes preincubation, 2 μL of substrate solution comprising 2.5 mM 2-thio-PAF [from ethanol stock], 32 μM CPM [from a DMSO stock] and 3.2 mM NEM (N-ethylmaleimide) [made fresh daily in DMSO] in assay buffer of 50 mM HEPES, pH 7.4, 150 mM NaCl, 1 mM CHAPS was added to 384 well Greiner 784076 (black) low-volume plates by BRAVO liquid handling station. After 2 mins, reaction was quenched with 5 μL of 5% aqueous trifluoroacetic acid (TFA). Plates were covered to protect from light and incubated for 40 min at room temperature. Plates were read at ex: 380/em: 485 using-Envision microplate reader. pIC50 data, curve and QC analysis was conducted by using XLFit module in Excel.
# [2] = molecular target: T2, recombinant human Lp-PLA2 (Homo sapiens, UniProt Q13093); assay: Recombinant human Lp-PLA2 assay (rhLp-PLA2, PED6 assay); format: biochemical; settings: recombinant human Lp-PLA2, PED6 substrate; upper limit for pIC50 in this assay is 9.3
# T2 sequence (Q13093 22-441): T1 sequence (Q13093 22-441)
# From the text: (1) Recombinant Human Lp-PLA2 Assay (rhLp-PLA2) (Also Referred to as “PED6” Assay)
# N-((6-(2,4-dinitrophenyl)amino)-hexanoyl)-2-(4,4-difluoro-5,7-dimethyl-4-bora-3a,4a-diaza-s-indacene-3-pentanoyl)-1-hexadecanoyl-sn-glycero-3-phosphoethanolamine, triethylammonium salt (PED6) is a commercially available fluorescently-labeled phospholipid, which is commercially available from Invitrogene and Molecular Probes. There is a quenching […] and a Bodipy fluorescein (FL) group in the sn2 position. Upon cleavage with Lp-PLA2, the Bodipy FL group is liberated and then may result in an increase in fluorescence. Inhibitors of Lp-PLA2 therefore prevent this cleavage and no fluorescent increase is observed.
# The PED6 assay was run as an unquenched 10 μL assay. The source plate containing the compounds to be tested was prepared by making 1:3 (by volume) serial dilution of the compounds within DMSO on 384-well microplate. Then, 0.01 μL of the compounds on compound source plate were transferred into 384 well Greiner 784076 (black) plates using ECHO liquid dispenser. 5 µL of recombinant human Lp-PLA2 enzyme (4 nM (or 110 pM) rhLp-PLA2 in assay buffer of 50 mM HEPES, pH 7.4, 150 mM NaCl, 1 mM CHAPS) was added to each well of the plate. Plates were centrifuged for 10 sec at 500 rpm. After 30 minutes preincubation, 5 µL of substrate (4 μM (or 5 μM) PED6 [from 5 mM DMSO stock] in assay buffer of 50 mM HEPES, pH 7.4, 150 mM NaCl, 1 mM CHAPS) was added to 384 well Greiner 784076 (black) plates. Plates were centrifuged for 10 sec at 500 rpm. The plate was covered to protect it from light and incubated for 20 min at room temperature. The plates were read for fluorescence intensity at ex: 480/em: 540 using ViewLux microplate imager for Envision spectrofluroimeters pIC50 data, curve and QC analysis was conducted by using XL fit module in Excel.
# The compounds described below were tested generally according to the PED6 assay described above.
IC50 [1] [nM],IC50 [2] [nM],Structure (SMILES)
≤ 100,≤ 1,"CN1CCn2c1cc(OCc1cc(F)c(Oc3ccc(F)c(C(F)(F)F)c3)c(F)c1)nc2=O [Example E81, 7-((3,5-difluoro-4-(4-fluoro-3-(trifluoromethyl)phenoxy)benzyl)oxy)-1-methyl-2,3-dihydroimidazo[1,2-c]pyrimidin-5(1H)-one]"
≤ 1000,≤ 10,"CN1CCn2c1cc(OCc1ccc(Oc3ccc(Cl)c(Cl)c3)c(F)c1)nc2=O [Example E41, 7-((4-(3,4-dichlorophenoxy)-3-fluorobenzyl)oxy)-1-methyl-2,3-dihydroimidazo[1,2-c]pyrimidin-5(1H)-one]"
≤ 100,≤ 1,CN1CCn2c1cc(OCc1ccc(Oc3cc(F)cc(C(F)(F)F)c3)c(C#N)c1)nc2=O [Example 116]
≤ 100,≤ 10,"CN1CCn2c1cc(OCc1ccc(Oc3cncc(Cl)c3)c(C#N)c1)nc2=O [Example 134, 2-((5-chloropyridin-3-yl)oxy)-5-(((1-methyl-5-oxo-1,2,3,5-tetrahydroimidazo[1,2-c]pyrimidin-7-yl)oxy)methyl)benzonitrile]"
≤ 100,≤ 10,"N#Cc1cc(COc2cc3n(c(=O)n2)CCN3)ccc1Oc1ccnc(C(F)(F)F)c1 [Example 91, 5-(((5-oxo-1,2,3,5-tetrahydroimidazo[1,2-c]pyrimidin-7-yl)oxy)methyl)-2-((2-(trifluoromethyl)pyridin-4-yl)oxy)benzonitrile]"
≤ 100,≤ 1,"CN1CCn2c1cc(OCc1ccc(Oc3ccc(Cl)c(C#N)c3)c(F)c1)nc2=O [Example 125, 2-chloro-5-(2-fluoro-4-(((1-methyl-5-oxo-1,2,3,5-tetrahydroimidazo[1,2-c]pyrimidin-7-yl)oxy)methyl)phenoxy)benzonitrile]"
≤ 100,≤ 10,"N#Cc1cc(COc2cc3n(c(=O)n2)CCN3)ccc1Oc1ccc(C(F)(F)F)nc1 [Example 93, 5-(((5-oxo-1,2,3,5-tetrahydroimidazo[1,2-c]pyrimidin-7-yl)oxy)methyl)-2-((6-(trifluoromethyl)pyridin-3-yl)oxy)benzonitrile, trifluoroacetic acid salt]"
≤ 100,1.58,"CN1CCn2c1cc(OCc1ccc(Oc3ccnc(C(F)(F)F)c3)c(F)c1)nc2=O [Example 94, 7-((3-fluoro-4-((2-(trifluoromethyl)pyridin-4-yl)oxy)benzyl)oxy)-1-methyl-2,3-dihydroimidazo[1,2-c]pyrimidin-5(1H)-one]"
≤ 100,≤ 10,"CN1CCn2c1cc(OCc1ccc(Oc3ccc(C#N)c(Cl)c3)c(C#N)c1)nc2=O [Example 122, 2-chloro-4-(2-cyano-4-(((1-methyl-5-oxo-1,2,3,5-tetrahydroimidazo[1,2-c]pyrimidin-7-yl)oxy)methyl)phenoxy)benzonitrile]"
≤ 100,1,"CN1CCn2c1cc(OCc1cc(F)c(Oc3cncc(C(F)(F)F)c3)c(F)c1)nc2=O [Example 147, 7-((3,5-difluoro-4-((5-(trifluoromethyl)pyridin-3-yl)oxy)benzyl)oxy)-1-methyl-2,3-dihydroimidazo[1,2-c]pyrimidin-5(1H)-one]"
≤ 1000,≤ 10,"CN1CCn2c1cc(OCc1ccc(Oc3ccnc(C(F)(F)F)c3)cc1)nc2=O [Example 123, 1-methyl-7-((4-((2-(trifluoromethyl)pyridin-4-yl)oxy)benzyl)oxy)-2,3-dihydroimid-azo[1,2-c]pyrimidin-5(1H)-one]"
≤ 100,≤ 1,"CN1CCn2c1cc(OCc1ccc(Oc3ccc(C#N)c(Cl)c3)c(F)c1)nc2=O [Example 128, 2-chloro-4-(2-fluoro-4-(((1-methyl-5-oxo-1,2,3,5-tetrahydroimidazo[1,2-c]pyrimidin-7-yl)oxy)methyl)phenoxy)benzonitrile]"
≤ 100,≤ 10,"CN1CCn2c1cc(OCc1ccc(Oc3cc(C#N)cc(C(F)(F)F)c3)c(F)c1)nc2=O [Example 150, 3-(2-fluoro-4-(((1-methyl-5-oxo-1,2,3,5-tetrahydroimidazo[1,2-c]pyrimidin-7-yl)oxy)methyl)phenoxy)-5-(trifluoromethyl)benzonitrile, trifluoroacetic acid salt]"
≤ 1000,≤ 10,"CN1CCn2c1cc(OCc1ccc(Oc3ccc(C#N)c(F)c3)c(F)c1)nc2=O [Example 136, 2-fluoro-4-(2-fluoro-4-(((1-methyl-5-oxo-1,2,3,5-tetrahydroimidazo[1,2-c]pyrimidin-7-yl)oxy)methyl)phenoxy)benzonitrile]"
≤ 100,≤ 10,"N#Cc1cc(COc2cc3n(c(=O)n2)CCN3)ccc1Oc1ccc(Cl)c(C(F)(F)F)c1 [Example 96, 2-(4-chloro-3-(trifluoromethyl)phenoxy)-5-(((5-oxo-1,2,3,5-tetrahydroimidazo[1,2-c]pyrimidin-7-yl)oxy)methyl)benzonitrile]"
≤ 100,≤ 1,"CN1CCn2c1cc(OCc1cc(F)c(Oc3ccc(C(F)(F)F)c(F)c3)c(F)c1)nc2=O [Example 140, 7-((3,5-difluoro-4-(3-fluoro-4-(trifluoromethyl)phenoxy)benzyl)oxy)-1-methyl-2,3-dihydroimidazo[1,2-c]pyrimidin-5(I H)-one]"
≤ 1000,≤ 10,"CN1CCn2c1cc(OCc1ccc(Oc3ccnc(C#N)c3)c(F)c1)nc2=O [Example 129, 4-(2-fluoro-4-(((1-methyl-5-oxo-1,2,3,5-tetrahydroimidazo[1,2-c]pyrimidin-7-yl)oxy)methyl)phenoxy)picolinonitrile, trifluoroacetic acid salt]"
≤ 100,≤ 1,"CN1CCn2c1cc(OCc1ccc(Oc3ccc(Cl)c(C(F)(F)F)c3)c(C#N)c1)nc2=O [Example 101, 2-(4-chloro-3-(trifluoromethyl)phenoxy)-5-(((1-methyl-5-oxo-1,2,3,5-tetrahydro-imidazo[1,2-c]pyrimidin-7-yl)oxy)methyl)benzonitrile, trifluoroacetic acid salt]"
≤ 100,≤ 10,"CN1CCn2c1cc(OCc1ccc(Oc3cncc(C(F)(F)F)c3)c(F)c1)nc2=O [Example 126, 7-((3-fluoro-4-((5-(trifluoromethyl)pyridin-3-yl)oxy)benzyl)oxy)-1-methyl-2,3-dihydroimidazo[1,2-c]pyrimidin-5(1H)-one]"
≤ 100,< 0.501,"CN1CCn2c1cc(OCc1ccc(Oc3ccc(F)c(C(F)(F)F)c3)c(C#N)c1)nc2=O [Example E44, 2-(4-fluoro-3-(trifluoromethyl)phenoxy)-5-(((1-methyl-5-oxo-1,2,3,5-tetrahydroi-midazo[1,2-c]pyrimidin-7-yl)oxy)methyl)benzonitrile, trifluoroacetic acid salt]"
